Patent publication US5138069A (E. I. Du Pont de Nemours and Company, priority 1988, dated 1992)
Where two headings read alike, the source gives them in different places.

Key:
Renal Hypertensive Rats = test: Antihypertensive effects in renal hypertensive rats; type: in vivo; conditions: Rattus norvegicus; for minimal effective dose at 10 mg/kg / minimal effective dose at 100 mg/kg: Table 25; for minimal effective dose at 10 mg/kg / minimal effective dose at 3 mg/kg: intravenous; for minimal effective dose at 10 mg/kg: 10 mg/kg or less; for minimal effective dose at 100 mg/kg / minimal effective dose at 30 mg/kg: oral; for minimal effective dose at 100 mg/kg: 100 mg/kg or less; for minimal effective dose at 3 mg/kg / minimal effective dose at 30 mg/kg: Table 26
Procedure, shortened: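 Renal hypertensive rats (renin-driven AII elevation) dosed orally at 100 mg/kg and/or i.v. via jugular cannula at 10 mg/kg; a second set used 30 mg/kg oral and 3 mg/kg i.v. Arterial pressure recorded continuously via carotid cannula and compared with pretreatment levels.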

AII receptor = test: Angiotensin II receptor binding (displacement of 3H-AII); conditions: read-out: Angiotensin II Receptor Binding IC50, rat adrenal cortical microsomes, 2 nM 3H-AII, 1 hour, room temperature
Procedure, shortened: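 The receptor source was rat adrenal cortical microsomes in Tris buffer, incubated with 2 nM ³H-AII plus or minus test compound for 1 h at room temperature. Bound and free ligand were separated by rapid filtration on glass-fibre filters. Filter-bound ³H-AII was counted by scintillation.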

[1] = Table 25, tested as sodium salt

| IC50 (AII receptor; Table 25) | IC50 (AII receptor; [1]) | SMILES | minimal effective dose at 10 mg/kg (Renal Hypertensive Rats) | minimal effective dose at 100 mg/kg (Renal Hypertensive Rats; tested as sodium salt) | minimal effective dose at 100 mg/kg (Renal Hypertensive Rats) | also measured |
| --- | --- | --- | --- | --- | --- | --- |
| 7200 nM | – | CCCCCCCc1nc(Cl)c(CO)n1Cc1ccc(NC(=O)c2ccccc2NS(=O)(=O)C(F)(F)F)cc1 [Example 54, 4-Chloro-2-heptyl-5-hydroxymethyl-1-[4-((N-trifluoromethanesulfonyl)-anthranilamido)benzyl]imidazole] | < 10 mg/kg | – | – | – |
| – | 190 nM | CCCCc1nc(Cl)c(CC(=O)OC)n1Cc1ccc(NC(=O)c2ccccc2-c2ccccc2C(=O)O)cc1 [Example 5] | – | > 100 mg/kg | – | – |
| – | 500 nM | CCCCc1nc(Cl)c(COC)n1Cc1ccc(C(=O)Nc2cccc(C)c2C(=O)O)cc1 [Example 80] | – | < 100 mg/kg | – | minimal effective dose at 10 mg/kg (Renal Hypertensive Rats; tested as sodium salt): < 10 mg/kg |
| – | 3400 nM | CCCCc1nc(Cl)c(CC(=O)OC)n1Cc1ccc(NC(=O)c2cc(I)ccc2NS(=O)(=O)C(F)(F)F)cc1 [Example 35] | – | < 100 mg/kg | – | minimal effective dose at 10 mg/kg (Renal Hypertensive Rats; tested as sodium salt): < 10 mg/kg |
| 260 nM | – | CCCCc1nc([N+](=O)[O-])c(CO)n1Cc1ccc(-c2ccccc2C(=O)O)cc1 [Example 91, 1-[(2'-carboxybiphenyl-4-yl)-methyl]-2-butyl-5-hydroxymethyl-4-nitroimidazole] | < 10 mg/kg | – | > 100 mg/kg | – |
| 110 nM | – | CCCCc1nc(Cl)c(CC(C)C(=O)N[C@H](C)c2ccccc2)n1Cc1ccc(NC(=O)c2ccccc2C(=O)O)cc1 (single isomer, unassigned) [Example 238, d and l 3-[1-(4-(2-Carboxybenzamido)benzyl-2-butyl-4-chloroimidazol-5-yl]-2-methylpropanoic acid, d-(+)-α-methylbenzylamide] | < 10 mg/kg | – | > 100 mg/kg | – |
| – | – | CCCc1nc(Cl)c(C(=O)O)n1Cc1ccc(-c2ccccc2-c2nn[nH]n2)cc1 [Example 251A] | – | – | – | minimal effective dose at 3 mg/kg (Renal Hypertensive Rats): < 3 mg/kg; minimal effective dose at 30 mg/kg (Renal Hypertensive Rats): < 30 mg/kg; IC50 (AII receptor; Table 26): 45 nM |
| – | – | CCCCc1nc(Cl)c(CO)n1Cc1ccc(-c2ccccc2-c2[nH]nnc2C#N)cc1 [Example 336] | – | – | – | minimal effective dose at 3 mg/kg (Renal Hypertensive Rats): > 3 mg/kg; minimal effective dose at 30 mg/kg (Renal Hypertensive Rats): > 30 mg/kg; IC50 (AII receptor; Table 26): 280 nM |
| – | 3800 nM | CCCCc1nc(Cl)c(Cc2nnn[nH]2)n1Cc1cccc(-c2nnn[nH]2)c1 [Example 26, 2-Butyl-4-chloro-5-[(1H-tetrazol-5-yl)methyl]-1-[3-(1H-tetrazol-5-yl)benzyl]imidazole] | – | > 100 mg/kg | – | – |
| 630 nM | – | CCCCc1nc(Cl)c(C=CCO)n1Cc1ccc(-c2ccccc2C(=O)O)cc1 [Example 314] | < 10 mg/kg | – | > 100 mg/kg | – |
| – | 600 nM | CCCCc1nc(Cl)c(CNC(=O)NC(C)c2cccc3ccccc23)n1Cc1ccc(-c2ccccc2C(=O)O)cc1 (centres unmarked) [Example 171] | – | > 100 mg/kg | – | minimal effective dose at 10 mg/kg (Renal Hypertensive Rats; tested as sodium salt): < 10 mg/kg |
| 680 nM | – | CCCCc1nc(CO)c(I)n1Cc1ccc(-c2ccccc2C(=O)O)cc1 [Example 105] | < 10 mg/kg | – | < 100 mg/kg | – |
| – | 140 nM | CCCCc1nc(CNC(=O)OCCC)c(Cl)n1Cc1ccc(-c2ccccc2C(=O)O)cc1 [Example 162] | – | < 100 mg/kg | – | minimal effective dose at 10 mg/kg (Renal Hypertensive Rats; tested as sodium salt): < 10 mg/kg |
| 64 nM | – | CCCCc1nc(Cl)c(CCC(=O)OC)n1Cc1ccc(NC(=O)c2ccccc2C(=O)O)cc1 [Example 234, 3-[2-Butyl-4-chloro-1-(4-(2-carboxybenzamido)benzyl)imidazol-5-yl]-propanoic acid methyl ester] | < 10 mg/kg | – | > 100 mg/kg | – |
| 36 nM | – | CCCCc1nc(C(F)(F)F)c(C=O)n1Cc1ccc(-c2ccccc2-c2nnn[nH]2)cc1 [Example 133] | < 10 mg/kg | – | < 100 mg/kg | – |
| – | 200 nM | CCCCOC(=O)NCc1c(Cl)nc(CCCC)n1Cc1ccc(-c2ccccc2C(=O)O)cc1 [Example 153] | – | < 100 mg/kg | – | minimal effective dose at 10 mg/kg (Renal Hypertensive Rats; tested as sodium salt): < 10 mg/kg |
| – | 3700 nM | CCCc1nccn1Cc1ccc(NC(=O)c2ccccc2C(=O)O)cc1 [Example 63] | – | > 100 mg/kg | – | – |
| – | – | CCCc1nc(-c2c(F)c(F)c(F)c(F)c2F)c(CO)n1Cc1ccc(-c2ccccc2C(=O)O)cc1 [Example 124J] | – | – | – | minimal effective dose at 3 mg/kg (Renal Hypertensive Rats): < 3 mg/kg; minimal effective dose at 30 mg/kg (Renal Hypertensive Rats): < 30 mg/kg; IC50 (AII receptor; Table 26): 680 nM |
